Consider 31 compounds from patent US9284350B2, “IAP BIR domain binding compounds” (Pharmascience Inc., priority 2010, dated 2016).

Bounds are passed on as bounds.

In test [1] the target is T1, XIAP (Homo sapiens, UniProt P98170).
T1 construct: fused on or other part: GST tag at the N-terminus (pGEX4T vectors)
The test is described as follows: Fluorescence polarization-based competition assay, XIAP. Type of test: binding. Particulars: FP assay, ki derived from IC50. Here is the method: (§1) Binding of compounds of Formula 1 to target BIR domains was measured using a fluorescence-polarization (FP) assay. Fluorescence-polarization was evaluated using a GENios microplate reader (TECAN) Pro instrument with the excitation filter set at 485 nm and the emission filter set at 535 nm. The final amount of protein used in the assay corresponds to the amount of protein necessary to obtain 80% of the maximum FP value in a P1 or P2 fluorescent (FITC) probe saturation experiment. The compounds potency (IC50) and selectivity, was assessed in the presence of the amount of target protein established, fluorescent probe, and a 10 point serial dilution in assay buffer (50 mM Hepes, pH 7.5, 250 mcg/mL γ-globulin, 2 mM DTT, 1% DMSO) of the selected compounds.
(§2) Assays were carried out in duplicate using untreated black 96-well plates (Corning #3915) and a total volume of 100 microliters, containing 25 microliters of fluorescent probe at a final concentration of 2 nM in assay buffer, 25 microliters of diluted compound, 25 microliters of BIR protein into assay buffer and 25 microliters of assay buffer. Buffer only (blank) or probe only in buffer (G-factor) were used as controls for calibration. The plate was incubated at room temperature in the dark for one hour and FP values in millipolarization units (mP) were recorded using Genios Pro FP reader.
(§3) The measured FP values (mP) were then plotted against compound concentration, and IC50 values were calculated based on a sigmoidal dose-response (variable-slope) curve fit using GraphPad Prism version 4.02 for Windows, GraphPad Software, San Diego Calif. USA and/or CambridgeSoft BioAssay Enterprise Version 10.1. The IC50 value is the concentration of test compound at which 50% of the tracer was displaced. ki values were derived from the calculated IC50 values as described above and according to the equation described in Nikolovska-Coleska, Z. (2004) Anal Biochem 332, 261-273. The results are presented in Table 2, wherein A=less than 25 nM; B=less than 250 nM; C=less than 1000 nM; and D=greater than 1000 nM.
A general note: Fluorescence polarisation rises when a labelled molecule tumbles more slowly, as on binding a larger partner.

In test [2] the target is T2, c-IAP1 (Homo sapiens, UniProt Q13490).
T2 construct: GST (N); made in house; host or cells: E. coli DH5α
T2 sequence (Q13490 251-363): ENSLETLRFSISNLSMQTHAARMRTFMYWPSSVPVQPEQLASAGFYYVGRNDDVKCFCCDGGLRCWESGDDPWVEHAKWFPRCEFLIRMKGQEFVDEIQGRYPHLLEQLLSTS
The test is described as follows: Fluorescence polarization-based competition assay, c-IAP1. The format is binding. Particulars: FP assay, ki derived from IC50. Here is the method:
as §1, §2, §3

For test [3], the system named is Colorectal carcinoma HCT116 cells. The test is described as follows: Cell death assay (MTT) in combination with HGS ETR1. Type of test: cell-based. The note with it: with HGS ETR1 30 ng/ml, 72 hours, read-out: HCT116+ mapatubimap EC50. As for the experimental part: Colorectal carcinoma HCT116 cells were cultured as monolayers in 96 well plates at a density of 2000 cells per well in McCoy's 5a medium (HyClone) supplemented with 2.2 g/L sodium bicarbonate, 10% FBS (HyClone) and 1% penicillin/streptomycin (HyClone). 24 hours later, triplicate wells were treated with HGS ETR1 (30 ng/ml) in combination with compound. Cells were incubated in the presence of compound and HGS agonistic Trail receptor antibody, ETR1 (Mapatumamab, 30 ng/ml) for 72 hours. Metabolic viability of remaining cells was assessed by MTT (thiazolyl blue tetrazolium bromide, Sigma) assay.
EC50 values (50% cell survival in the presence of compound as compared to untreated controls) were calculated from survival curves using BioAssay software (CambridgeSoft) and GraphPad Prism (Graph Pad Software Inc.). The results are provided in Table 3, below, wherein A=less than 50 nM; B=less than 250 nM; C=less than 1000 nM; and D=greater than 1000 nM.

T1 sequence (P98170 246-497 limits assumed): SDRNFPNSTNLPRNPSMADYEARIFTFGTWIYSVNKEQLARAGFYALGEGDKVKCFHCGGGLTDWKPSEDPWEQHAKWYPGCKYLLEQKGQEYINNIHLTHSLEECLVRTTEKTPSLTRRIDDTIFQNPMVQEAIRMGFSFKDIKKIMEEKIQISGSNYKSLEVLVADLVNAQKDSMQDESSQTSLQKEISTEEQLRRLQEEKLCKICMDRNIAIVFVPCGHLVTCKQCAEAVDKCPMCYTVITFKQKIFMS

Broadly, the Ki is a dissociation constant, usually derived from enzyme kinetics or from competition with a known ligand. A higher Ki goes with a looser hold on the target. In general, EC50 refers to the concentration at which the effect is half-maximal. Take `CN[C@@H](C)C(=O)N[C@H](C(=O)N1CCC[C@H]1CN(CCc1ccc(F)cc1)C(=O)c1coc(-c2ccccc2)n1)C(C)(C)C` [Compound 64]: the Ki in test [1] was below 250 nM; in test [2], below 25 nM. Further, the EC50 in test [3] was below 250 nM.
`CN[C@@H](C)C(=O)N[C@H](C(=O)N1CCC[C@H]1CN(CCc1ccc(F)cc1)C(=O)c1cn2cc(NC(C)=O)ccc2n1)C(C)(C)C` [Compound 43]: the Ki in test [1] is below 250 nM; in test [2], below 25 nM. In addition, the EC50 in test [3] is below 250 nM.
Consider `CN[C@@H](C)C(=O)N[C@H](C(=O)N1CCC[C@H]1CN(CCc1ccccc1)C(=O)C(=O)Nc1ccccc1)C(C)(C)C` [Compound 9], for which the inhibition constant (Ki) in test [1] is below 250 nM; in test [2] it was below 25 nM. Further, the EC50 in test [3] was below 250 nM.
As to `CN[C@@H](C)C(=O)N[C@H](C(=O)N1CCC[C@H]1CN(CCc1ccccc1)C(=O)c1cn2cc(C)ccc2n1)C(C)(C)C` [Compound 30], the Ki was below 250 nM in test [1] and below 25 nM in test [2]. In addition, the EC50 in test [3] was below 250 nM.
As for `CN[C@@H](C)C(=O)N[C@H](C(=O)N1CCC[C@H]1CN(CCc1ccccc1F)C(=O)c1cn2cccnc2n1)C(C)(C)C` [Compound 11], the results for the Ki in test [1] and in test [2] were below 250 nM and below 25 nM, respectively. The EC50 in test [3] was below 250 nM.
On to `CN[C@@H](C)C(=O)N[C@H](C(=O)N1CCC[C@H]1CN(CCc1ccccc1)C(=O)c1nc2ccccc2[nH]1)C(C)(C)C` [Compound 16], for which the Ki in test [1] was below 250 nM; in test [2], below 25 nM. Besides, the EC50 in test [3] is below 1000 nM.
The like results for `CN[C@@H](C)C(=O)N[C@@H](COC)C(=O)N1CCC[C@H]1CN(CCc1ccc(F)cc1)C(=O)c1cn2ccccc2n1` [Compound 60] were, in that order, below 1000 nM, below 25 nM and below 1000 nM.
As to `CN[C@@H](C)C(=O)N[C@H](C(=O)N1CCC[C@H]1CN(CCc1ccc(F)cc1)C(=O)c1cc(C)n(C)n1)C(C)(C)C` [Compound 101], in test [3], the EC50 was below 50 nM.
`CN[C@@H](C)C(=O)N[C@H](C(=O)N1CCC[C@H]1CN(CCc1ccccc1)C(=O)c1cnc2ccccn12)C(C)(C)C` [Compound 28]: the Ki in test [1] was below 250 nM; in test [2] it was below 25 nM. Also, in test [3], the EC50 is below 1000 nM.
For `CN[C@@H](C)C(=O)N[C@H](C(=O)N1CCC[C@H]1CN(CCc1ccc(F)cc1)C(=O)C(=O)Nc1ccc(F)cc1)C(C)(C)C` [Compound 42], the Ki is below 250 nM in test [1] and below 25 nM in test [2]. Further, the EC50 in test [3] was below 1000 nM.
For `CN[C@@H](C)C(=O)N[C@H](C(=O)N1CCC[C@H]1CN(CCc1ccccc1)C(=O)c1cc2ccccn2c1)C(C)(C)C` [Compound 8], the Ki in test [1] and in test [2] was below 25 nM each time. In addition, the EC50 in test [3] was below 250 nM.
Take `CN[C@@H](C)C(=O)N[C@H](C(=O)N1CCC[C@H]1CN(CCc1ccc(F)cc1)C(=O)c1cn(-c2ccc(OC)cc2)cn1)C(C)(C)C` [Compound 52]: the Ki in test [1] is below 250 nM; in test [2] it was below 25 nM. The EC50 in test [3] is below 250 nM.
Consider `CN[C@@H](C)C(=O)N[C@H](C(=O)N1CCC[C@H]1CN(CCc1ccc(F)cc1)C(=O)c1cn2cc(OC)ccc2n1)C(C)(C)C` [Compound 51], for which the Ki in test [1] is below 250 nM; in test [2] it was below 25 nM. Besides, the EC50 in test [3] is below 250 nM.
On to `CN[C@@H](C)C(=O)N[C@H](C(=O)N1CCC[C@H]1CN(CCc1ccc(F)cc1)C(=O)c1cn(-c2c(C)cccc2C)cn1)C(C)(C)C` [Compound 54], for which the Ki in test [1] is below 250 nM; in test [2], below 25 nM. Further, in test [3], the EC50 was below 50 nM.
`CN[C@@H](C)C(=O)N[C@H](C(=O)N1CCC[C@H]1CN(CCc1ccc(F)cc1)C(=O)c1cn2cc(-c3ccccc3)ccc2n1)C(C)(C)C` [Compound 48]: the inhibition constant (Ki) in test [1] is below 250 nM; in test [2], below 25 nM. Moreover, the EC50 in test [3] was below 50 nM.
For the compound `CN[C@@H](C)C(=O)N[C@H](C(=O)N1CCC[C@H]1CN(CCc1ccc(F)cc1)C(=O)c1cnn(-c2ccc(F)cc2)n1)C1CCCCC1` [Compound 118], the EC50 in test [3] is below 250 nM.
As to `CN[C@@H](C)C(=O)N[C@H](C(=O)N1CCC[C@H]1CN(CCc1ccc(F)cc1)C(=O)c1cn2cc(N)ccc2n1)C(C)(C)C` [Compound 45], the Ki in test [1] and in test [2] was below 25 nM in each case. The EC50 in test [3] is below 50 nM.
On to `CN[C@@H](C)C(=O)N[C@H](C(=O)N1CCC[C@H]1CN(CCc1ccccc1)C(=O)c1cn2cccnc2n1)C1CCCCC1` [Compound 5], for which the values for the Ki in test [1] and in test [2] were below 250 nM and below 25 nM, respectively. Also, the EC50 in test [3] was below 50 nM.
Take `CN[C@@H](C)C(=O)N[C@H](C(=O)N1CCC[C@H]1CN(CCc1ccccc1)C(=O)c1cn2ccc(C)cc2n1)C(C)(C)C` [Compound 31]: the Ki in test [1] is below 250 nM; in test [2], below 25 nM. For the same compound, the EC50 in test [3] was below 250 nM.
As for `CN[C@@H](C)C(=O)N[C@H](C(=O)N1CCC[C@H]1CN(CCc1ccccc1)C(=O)c1c[nH]cn1)C(C)(C)C` [Compound 21], the Ki in test [1] is below 250 nM; in test [2], below 25 nM. Besides, the 50% effective concentration (EC50) in test [3] was below 1000 nM.
As to `CN[C@@H](C)C(=O)N[C@H](C(=O)N1CCC[C@H]1CN(CCc1ccccc1)C(=O)c1cn2ccncc2n1)C(C)(C)C` [Compound 35], the Ki in test [1] and in test [2] was below 25 nM each time. The EC50 in test [3] was below 250 nM.
With `CN[C@@H](C)C(=O)N[C@H](C(=O)N1CCC[C@H]1CN(CCc1ccccc1)C(=O)c1cn2ccccc2n1)C1CCCCC1` [Compound 13], the results for the Ki in test [1] and in test [2] were below 250 nM and below 25 nM, respectively. In addition, in test [3], the concentration giving a half-maximal response (EC50) was below 250 nM.
As to `CN[C@@H](C)C(=O)N[C@H](C(=O)N1CCC[C@H]1CN(CCc1ccc(F)cc1)C(=O)c1cn2ccccc2n1)C1CCOCC1` [Compound 19], the Ki in test [1] was below 250 nM; in test [2], below 25 nM. Besides, the concentration giving a half-maximal response (EC50) in test [3] is below 50 nM.
With `CN[C@@H](C)C(=O)N[C@H](C(=O)N1C[C@@H](Oc2ccc(F)cc2)C[C@H]1CN(CCc1ccc(F)cc1)C(=O)c1cc(C)n(C)n1)C(C)(C)C` [Compound 121], the EC50 in test [3] was below 50 nM.
`CN[C@@H](C)C(=O)N[C@H](C(=O)N1CCC[C@H]1CN(CCc1ccc(F)cc1)C(=O)C(=O)Nc1ccc(OC)cc1)C(C)(C)C` [Compound 41]: the Ki was below 250 nM in test [1] and below 25 nM in test [2]. Besides, in test [3], the EC50 is below 1000 nM.
For `CN[C@@H](C)C(=O)N[C@H](C(=O)N1CCC[C@H]1CN(CCc1ccc(F)cc1)C(=O)c1cnc2ncccn12)C(C)(C)C` [Compound 38], the EC50 in test [3] is below 250 nM.
In the case of `CN[C@@H](C)C(=O)N[C@H](C(=O)N1CCC[C@H]1CN(CCc1ccc(F)cc1)C(=O)c1nc2ccccc2o1)C(C)(C)C` [Compound 62], the results for the Ki in test [1] and in test [2] were below 250 nM and below 25 nM, respectively. The EC50 in test [3] is below 1000 nM.
`CC[C@H](N)C(=O)N[C@H](C(=O)N1CCC[C@H]1CN(CCc1ccccc1)C(=O)c1cn2ccccc2n1)C1CCCCC1` [Compound 29]: the Ki in test [1] was below 1000 nM; in test [2], below 25 nM. Moreover, the EC50 in test [3] was above 1000 nM.
As for `CN[C@@H](C)C(=O)N[C@H](C(=O)N1CCC[C@H]1CN(CCc1ccccc1)C(=O)c1cn2c(n1)CCCC2)C(C)(C)C` [Compound 15], the Ki in test [1] was below 250 nM; in test [2], below 25 nM. Moreover, the EC50 in test [3] was below 250 nM.
As to `CN[C@@H](C)C(=O)N[C@H](C(=O)N1CCC[C@H]1CN(CCc1ccccc1)C(=O)c1cn(C)c2ccccc12)C(C)(C)C` [Compound 25], the Ki is below 250 nM in test [1] and below 25 nM in test [2].
For `CN[C@@H](C)C(=O)N[C@H](C(=O)N1C[C@@H](Oc2ccc(F)cc2)C[C@H]1CN(CCc1ccc(F)cc1)C(=O)c1cnn(-c2ccc(F)cc2)n1)C(C)(C)C` [Compound 119], the EC50 in test [3] is below 250 nM.
